{"source": "patent US5773228A", "about": "“Activation-dependent protein expressed on the surface of activated platelets and antibodies thereto” (The General Hospital Corporation, priority 1995, dated 1998)", "tested_on": "platelets (TAPP-2 expression)", "assay": "Expression of TAPP-2 on platelets stimulated by different agonists (binding of 125I-MAb 12A7)", "format": "cell-based, rabbit", "details": "compared to resting platelets, 10 minutes at room temperature", "experimental": "Platelets were incubated with various agonists, with or without Ca^2+ or EDTA and then fixed by paraformaldehyde. The fixed platelets were washed and incubated with ^125 I-MAb 12A7 (50,000 cpm), with or without unlabeled MAb 12A7 (0.5 ug) added as an inhibitor to estimate nonspecific binding. After 45 min. the platelet samples were again washed, spun, and aspirated. The platelet pellet was counted to determine the amount of bound MAb 12A7.\nEquilibrium saturation binding studies were conducted in a similar manner. Platelets activated by thrombin (0.15 U/ml) were incubated in duplicate with various amounts of ^125 I-MAb 12A7 (1,000,000 to 6,250 cpm) in a total volume of 200 μl. Each tube also contained a molar excess (>100-fold) of a control, anti-digoxin MAb, of the same isotype (Mudgett-Hunter et al., Mol. Immunol. 22:477-488 (1985)), which was added to inhibit nonspecific binding of ^125 I-MAb 12A7 to platelets via Fc receptors. To estimate nonspecific binding, a molar excess (>100-fold) of nonradioactive MAb 12A7 was added to one set of tubes. After incubation for 45 minutes at room temperature 2 ml of cold Tyrode's buffer was added, the tubes were centrifuged at 3000 ×g for 10 minutes and the unbound ^125 I-12A7 MAb was removed. The bound antibody was measured by gamma counting in Micro-Medics 4/600 counter. To study the binding of MAb 12A7 to resting platelets a similar procedure was performed except that the number of platelets had to be increased to 1.29×10^8 cells in a total incubation volume of 400 μl. The platelets were incubated with various amounts of MAb 12A7 (2,000,000 to 25,000 cpm) as above. The binding data was analyzed by the Ligand program of Munson and Rodbard, Anal. Biochem. 107:220-239 (1980)). […] The binding of 12A7 to platelets stimulated by different agonists was also studied. Platelets were isolated as described above. Platelets (5×10^6 cells/40 Kl) in modified Tyrode's (without divalent cations) were added to plastic tubes. […] After 45 minutes the platelet samples were again washed, spun, aspirated and gamma-counted.", "data": [{"compound": "CNc1ccc2oc(C[C@H]3O[C@@]4(CC[C@H]3C)O[C@H]([C@H](C)C(=O)c3ccc[nH]3)[C@H](C)C[C@H]4C)nc2c1C(=O)O", "note": "[A23187]", "values": [{"measurement": "TAPP-2 expression as indicated by the binding of 125I-MAb 12A7", "setting": "A23187 2 μM", "value": "notable increase"}]}, {"compound": "Nc1ncnc2c1ncn2[C@@H]1O[C@H](COP(=O)(O)OP(=O)(O)O)[C@@H](O)[C@H]1O", "note": "[ADP]", "values": [{"measurement": "TAPP-2 expression as indicated by the binding of 125I-MAb 12A7", "setting": "ADP 10 μM", "value": "notable increase"}]}, {"compound": "CNC[C@H](O)c1ccc(O)c(O)c1", "note": "[epinephrine]", "values": [{"measurement": "TAPP-2 expression as indicated by the binding of 125I-MAb 12A7", "setting": "epinephrine 2 μM", "value": "little, if any, effect"}]}]}
